In patent publication US5824700A, “Ortho-quinone derivatives novel synthesis therefor and their use in the inhibition of neoplastic cell growth” (Wisconsin Alumni Research Foundation, priority 1996, dated 1998):
Like-named read-outs stand apart in the source and are kept apart here. Each block holds one compound with its values, some of them ahead of it.

Columns and labels:
MCF7 = assay: Colony formation / cell survival assay, MCF7 breast cancer cells; conditions: Homo sapiens, MCF7, 4 h
Description: 10 standard culture flasks for each drug to be tested are plated with 5×10^5 cells in 5 mL of media and allowed to incubate for 16-24 hours at 37° C.
Fresh stocks of the compounds to be evaluated are prepared in sterile DMSO. For each drug, two of the ten culture flasks prepared on Day 1 are used as controls. The control flasks are treated with DMSO only. […] The remaining flasks are left untouched. The cells are incubated for 4 hours at 37° C.
After 4 hours the control flasks are counted (2 counts for each flask) and the cells per mL calculated based on the average of the control counts. The cells are then replated into six 60 mm dishes for each flask from dilutions based on the cells/mL of the control. (In the various test runs, cell concentrations ranged from approximately 50 to approximately 800 cells per mL.) Day 15-20:
The cells are monitored for colony formation. […] The plating efficiency for each dish is then calculated. The plating efficiencies of the six dishes for each flask are averaged and the standard deviation is calculated. The fraction of cell survival at each concentration is determined based on the controls and plotted as log fraction of cell survival±standard deviation versus the dose of the compound.
In the same fashion as the above tests, several lapachone and dunnione derivatives were evaluated for their efficacy in inhibiting the proliferation of breast cancer cells. In this instance, the cancer cell line utilized was MCF7.

HT29 = assay: Colony formation / cell survival assay, HT29 colon cancer cells; format: cell-based, human; conditions: for effect on ability of HT29 cells to reproduce / IC50: FIG. 1; for effect on ability of HT29 cells to reproduce: β-lapachone at approximately 10 μM; for IC50: HT-29, HT29, 4 h exposure, read-out: ED50 (the source's name)
Description: (§1) The control flasks are treated with DMSO only. […] The remaining flasks are left untouched.
(§2) The cells are monitored for colony formation. […] The plating efficiency for each dish is then calculated.
(§3) The cell lines HT29 and BE are both human colon cancer cell lines which are used to test the effectiveness of a given agent against cancer cell growth and proliferation. […] The HT29 and BE cell cultures were prepared and tested according to the protocol given above.

Topoisomerase II = assay: Topoisomerase II-mediated DNA cleavage (electrophoresis); format: biochemical, mammalian; conditions: gels of FIGS. 9A and 9B
Description: Analogous experiments to assay the ability of several of the compounds described herein to induce Topoisomerase II (Topo II)-mediated DNA cleavage were also performed. The results of one such experiment are depicted in the electrophoretegram of FIGS. 9A and 9B. Here, DNA was incubated in the presence of Topo II and several different compounds described herein.
A legend for the compounds which were tested in FIGS. 9A and 9B is as follows: [drawing 25] Lane 1: R=H (β-lapachone) Lane 2: R=OH
In the far left-hand lane of […], DNA alone is shown. Moving to the right, the next lane contains DNA and Topo II (mammalian). Lanes 1-9 of FIGS. 9A and 9B contain a series of concentrations of drugs (see Legend, above) in the presence of DNA and Topo II. Each set of lanes for each drug spans 3 orders of magnitude in concentration (0.1, 1, 10, and 100 μM). […] However, Lanes 1-9, which contain DNA, Topo II, and a drug according to the present invention, show extensive DNA cleavage.

BE = assay: Colony formation / cell survival assay, BE colon cancer cells; format: cell-based, human; conditions: for effect on ability of BE cells to reproduce / IC50: FIG. 2; for effect on ability of BE cells to reproduce: β-lapachone at approximately 10 μM; for viability at 2 µM / viability at 10 µM / viability at 20 µM / viability at 100 µM / IC50: Homo sapiens; for viability at 2 µM / viability at 10 µM / viability at 20 µM / viability at 100 µM: 4 h, read-out: Fraction of Cell Survival; for IC50: BE, 4 h exposure, read-out: ED50 (the source's name)
Description: as §1, §2, §3

A549 = assay: Colony formation / cell survival assay, A549 lung cancer cells; format: cell-based; conditions: Homo sapiens, A549, 4 h; for IC50: A549, 4 h exposure, read-out: ED50 (the source's name)
Description: as §1, §2
The compounds tested were β-lapachone, 3-hydroxy-β-lapachone, 3,3-DINOR-dunnione (designated "Drug A" in the figures), 3-NOR-dunnione (designated "Drug B" in the figures) and dunnione itself (designated "Drug C" in the figures). A legend for the figures is provided below. The cell lines were cultured and the compounds evaluated according to the standard protocol described above.

[1] = tested on: human prostate cancer cell line PC-3; assay: IC50 determination (DNA amount and anchorage-dependent colony formation), prostate cancer PC-3; format: cell-based; conditions: PC-3, 24 hours exposure
Description: (§4) Table 15 lists the IC50 determinations of Drugs B, C, and D against the human prostate cancer cell line PC-3 and the human breast cancer cell line MCF7. IC50 calculations for each cell line were determined by DNA amount and anchorage-dependent colony formation (CF) as described elsewhere. (See Planchon et al. Cancer Res. 55, 3706 (1995), incorporated herein by reference.) In short, IC50 calculations for each cell line were determined by DNA amount and anchorage-dependent colony formation (CF) assays. For the CF assay, cells were seeded at 500 viable cells/well in 6-well plates and incubated overnight, then treated with equal volumes of media containing β-lapachone at final concentrations ranging from 0.005 to 50 μM in half-log increments (controls were treated with 0.25% DMSO, equivalent to the highest dose of β-lapachone used) for 4 hours or for continuous 12 hour exposures. Plates (3 wells/condition) were stained with crystal violet, and colonies of >50 normal-appearing cells were enumerated. IC50 values for various cells were calculated using drug doses with numbers of colonies surrounding 50% of control. For DNA assays, plates were harvested for IC50 determinations 8 days after treatment using a CytoFluor 2350 fluorescence measurement system (Millipore). Six-well samplings were included in the calculation of DNA fluor units for each dose. A graph of β-lapachone dose versus percentage control DNA in fluor units was used to calculate each IC50. The cells were exposed for 24 hours to the tricyclic naphthoquinones. All experiments were repeated at least twice, each in duplicate. PC-3 is an androgen-independent prostate cancer cell line.

[2] = tested on: human breast cancer cell line MCF7; assay: IC50 determination (DNA amount and anchorage-dependent colony formation), breast cancer MCF7; format: cell-based; conditions: MCF7, 24 hours exposure
Description: as §4

[3] = read-out: ED50, MCF7, 4 h exposure, FIG. 6
[4] = read-out: ED50, MCF7, 4 h exposure, FIG. 7
[5] = read-out: Fraction of Cell Survival, MCF7, FIG. 7, 1 μM, 4 h
[6] = read-out: Fraction of Cell Survival, MCF7, FIG. 7, 5 μM, 4 h
[7] = read-out: Fraction of Cell Survival, MCF7, FIG. 7, 10 μM, 4 h
[8] = read-out: Fraction of Cell Survival, MCF7, FIG. 7, 50 μM, 4 h
[9] = Homo sapiens, HT-29, 4 h, read-out: Fraction of Cell Survival
[10] = read-out: Fraction of Cell Survival, A549, FIG. 4, 1 μM, 4 h
[11] = read-out: Fraction of Cell Survival, A549, FIG. 4, 5 μM, 4 h
[12] = read-out: Fraction of Cell Survival, A549, FIG. 4, 10 μM, 4 h
[13] = read-out: Fraction of Cell Survival, A549, FIG. 4, 50 μM, 4 h
[14] = read-out: Fraction of Cell Survival
[15] = read-out: ED50, MCF7, 4 h exposure, FIG. 8
[16] = read-out: Fraction of Cell Survival, MCF7, FIG. 8, 1 μM, 4 h
[17] = read-out: Fraction of Cell Survival, MCF7, FIG. 8, 5 μM, 4 h
[18] = read-out: Fraction of Cell Survival, MCF7, FIG. 8, 10 μM, 4 h
[19] = read-out: Fraction of Cell Survival, MCF7, FIG. 8, 50 μM, 4 h
[20] = read-out: Fraction of Cell Survival, A549, FIG. 5, 1 μM, 4 h
[21] = read-out: Fraction of Cell Survival, A549, FIG. 5, 5 μM, 4 h
[22] = read-out: Fraction of Cell Survival, A549, FIG. 5, 10 μM, 4 h
[23] = read-out: Fraction of Cell Survival, A549, FIG. 5, 50 μM, 4 h

intracellular target (in words) (Topoisomerase II): Topo II is an intracellular target
Structure (SMILES): CC1(C)CCC2=C(O1)c1ccccc1C(=O)C2=O [β-lapachone, 7,8-dihydro-2,2-dimethyl-2H-naphtho(2,3-b)dihydropyran-7,8-dione, reference compound]
IC50 (MCF7; [3]): 9800 nM | IC50 (MCF7; [4]): 1600 nM | viability at 1 µM (MCF7; read-out: Fraction of Cell Survival, MCF7, FIG. 6, 1 μM, 4 h): 150% | viability at 5 µM (MCF7; read-out: Fraction of Cell Survival, MCF7, FIG. 6, 5 μM, 4 h): 0% | viability at 10 µM (MCF7; read-out: Fraction of Cell Survival, MCF7, FIG. 6, 10 μM, 4 h): 0% | viability at 50 µM (MCF7; read-out: Fraction of Cell Survival, MCF7, FIG. 6, 50 μM, 4 h): 0.32% | viability at 1 µM (MCF7; [5]): 92% | viability at 5 µM (MCF7; [6]): 0.36% | viability at 10 µM (MCF7; [7]): 0.18% | viability at 50 µM (MCF7; [8]): 0.09% | effect on ability of HT29 cells to reproduce (HT29): significantly impacts upon the ability of the HT29 and BE cells to reproduce | viability at 1 µM (HT29; [9]): 96.7% | viability at 5 µM (HT29; [9]): 49% | viability at 10 µM (HT29; [9]): 0% | viability at 50 µM (HT29; [9]): 0% | IC50 (HT29; Homo sapiens): 4800 nM | effect on ability of BE cells to reproduce (BE): significantly impacts upon the ability of the HT29 and BE cells to reproduce | viability at 2 µM (BE): 1.17% | viability at 10 µM (BE): 15.8% | viability at 20 µM (BE): 4.39% | viability at 100 µM (BE): 0% | IC50 (BE): 8000 nM | IC50 (A549; FIG. 3): 6100 nM | IC50 (A549; FIG. 4): 5800 nM | viability at 1 µM (A549; read-out: Fraction of Cell Survival, A549, FIG. 3, 1 μM, 4 h): 265% | viability at 5 µM (A549; read-out: Fraction of Cell Survival, A549, FIG. 3, 5 μM, 4 h): 158% | viability at 10 µM (A549; read-out: Fraction of Cell Survival, A549, FIG. 3, 10 μM, 4 h): 0% | viability at 50 µM (A549; read-out: Fraction of Cell Survival, A549, FIG. 3, 50 μM, 4 h): 17.7% | viability at 1 µM (A549; [10]): 85.5% | viability at 5 µM (A549; [11]): 89.7% | viability at 10 µM (A549; [12]): 0.69% | viability at 50 µM (A549; [13]): 0%

Structure (SMILES): CC1(C)OC2=C(CC1O)C(=O)C(=O)c1ccccc12 (stereo not drawn) [3-hydroxy-β-lapachone]
IC50 (MCF7; [3]): 7700 nM | viability at 1 µM (MCF7; [14]): 106% | viability at 5 µM (MCF7; [14]): 68% | viability at 10 µM (MCF7; [14]): 0% | viability at 50 µM (MCF7; [14]): 0.32% | effect on ability of HT29 cells to reproduce (HT29): significantly limits the reproductive ability of these cancer cell lines | viability at 2 µM (HT29; [9]): 152% | viability at 10 µM (HT29; [9]): 119% | viability at 20 µM (HT29; [9]): 2.32% | viability at 100 µM (HT29; [9]): 0% | IC50 (HT29; Homo sapiens): 15400 nM | effect on ability of BE cells to reproduce (BE): significantly limits the reproductive ability of these cancer cell lines | viability at 2 µM (BE): 92.9% | viability at 10 µM (BE): 39.2% | viability at 20 µM (BE): 1.02% | viability at 100 µM (BE): 0% | IC50 (BE): 600 nM | IC50 (A549; FIG. 3): 18000 nM | viability at 1 µM (A549; [14]): 304% | viability at 5 µM (A549; [14]): 239% | viability at 10 µM (A549; [14]): 153% | viability at 50 µM (A549; [14]): 0%

intracellular target (in words) (Topoisomerase II): Topo II is an intracellular target | IC50 [1]: 600 nM | IC50 [2]: 700 nM
Structure (SMILES): CC1OC2=C(C(=O)C(=O)c3ccccc32)C1(C)C (centres unmarked) [Drug C, 2,3,3-trimethyl-2,3,4,5-tetrahydro-naphtho(2,3-b)dihydrofuran-6,7-dione]
IC50 (MCF7; [15]): 1400 nM | viability at 1 µM (MCF7; [16]): 55.8% | viability at 5 µM (MCF7; [17]): 0.65% | viability at 10 µM (MCF7; [18]): 0.32% | viability at 50 µM (MCF7; [19]): 0.65% | IC50 (A549; FIG. 5): 4300 nM | viability at 1 µM (A549; [20]): 110% | viability at 5 µM (A549; [21]): 40% | viability at 10 µM (A549; [22]): 0% | viability at 50 µM (A549; [23]): 0%

Structure (SMILES): CC1CC2=C(O1)c1ccccc1C(=O)C2=O (centres unmarked) [Drug A]
IC50 (MCF7; [4]): 1600 nM | viability at 1 µM (MCF7; [5]): 85.4% | viability at 5 µM (MCF7; [6]): 0.36% | viability at 10 µM (MCF7; [7]): 0.18% | viability at 50 µM (MCF7; [8]): 0.18% | IC50 (A549; FIG. 4): 6000 nM | viability at 1 µM (A549; [10]): 111% | viability at 5 µM (A549; [11]): 121% | viability at 10 µM (A549; [12]): 1.72% | viability at 50 µM (A549; [13]): 0.23%

IC50 [1]: 700 nM | IC50 [2]: 500 nM
Structure (SMILES): CC1OC2=C(C(=O)C(=O)c3ccccc32)C1C (centres unmarked) [Drug B, 2,3-dimethyl-2,3,4,5-dihydro-naphtho (2,3-b)dihydrofuran-6,7-dione]
IC50 (MCF7; [15]): 1400 nM | viability at 1 µM (MCF7; [16]): 8.88% | viability at 5 µM (MCF7; [17]): 0.32% | viability at 10 µM (MCF7; [18]): 0.16% | viability at 50 µM (MCF7; [19]): 1.54% | IC50 (A549; FIG. 5): 5600 nM | viability at 1 µM (A549; [20]): 89.7% | viability at 5 µM (A549; [21]): 81.9% | viability at 10 µM (A549; [22]): 0.24% | viability at 50 µM (A549; [23]): 0%

IC50 [1]: 900 nM | IC50 [2]: 700 nM
Structure (SMILES): Cc1cc2c(o1)-c1ccccc1C(=O)C2=O [Drug D]
